From ChEMBL document CHEMBL1138576, “Virtual screening for Raf-1 kinase inhibitors based on pharmacophore model of substituted ureas” (Eur J Med Chem, 2009) come the findings set out here.

The experiment has as its target RAF proto-oncogene serine/threonine-protein kinase (Homo sapiens, UniProt P04049). In words: Inhibition of Raf-1.

Sequence of RAF proto-oncogene serine/threonine-protein kinase (P04049 whole entry): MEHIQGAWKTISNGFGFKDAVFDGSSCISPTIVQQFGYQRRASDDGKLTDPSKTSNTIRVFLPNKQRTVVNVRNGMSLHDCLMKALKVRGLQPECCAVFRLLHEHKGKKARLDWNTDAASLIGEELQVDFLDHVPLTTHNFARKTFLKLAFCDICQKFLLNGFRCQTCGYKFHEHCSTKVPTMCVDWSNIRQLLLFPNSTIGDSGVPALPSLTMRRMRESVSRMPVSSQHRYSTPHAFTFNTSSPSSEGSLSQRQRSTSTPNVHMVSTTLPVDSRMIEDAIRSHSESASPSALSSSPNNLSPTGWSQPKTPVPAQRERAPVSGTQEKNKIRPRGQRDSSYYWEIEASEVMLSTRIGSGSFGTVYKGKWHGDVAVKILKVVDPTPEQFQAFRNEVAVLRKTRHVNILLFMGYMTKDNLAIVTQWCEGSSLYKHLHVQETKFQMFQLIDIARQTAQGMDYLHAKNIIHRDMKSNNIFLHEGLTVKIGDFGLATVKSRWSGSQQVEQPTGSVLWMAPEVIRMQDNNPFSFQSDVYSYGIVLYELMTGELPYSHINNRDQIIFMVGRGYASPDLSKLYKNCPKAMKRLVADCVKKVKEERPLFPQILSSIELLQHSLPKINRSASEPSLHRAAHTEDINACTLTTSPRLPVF

What is called IC50 is the concentration that gives 50% inhibition. `COc1cc([N+](=O)[O-])ccc1NC(=O)Nc1ccc(Oc2ccncc2)cc1` had an IC50 of 4400 nM.
The figure for `CC(C)(C)c1cc(NC(=O)Nc2ccc(C(O)c3ccncc3)cc2)no1` (stereo not given) is 1500 nM; for `CNC(=O)c1ccc(Oc2ccc(NC(=O)Nc3cc(C(C)(C)C)on3)cc2)cc1` it is 1100 nM.
On to `COc1ccc(Oc2ccc(NC(=O)Nc3cc(C(C)(C)C)on3)cc2)cc1`, for which the IC50 came to 500 nM.
Next, `COc1c(Cl)cccc1NC(=O)Nc1ccc(Oc2ccncc2)cc1`: 2700 nM.
The figure for `CC(C)(C)c1cccc(NC(=O)Nc2ccc(Oc3ccncc3)cc2)c1` is 870 nM; for `Cc1cccc(Oc2ccc(NC(=O)Nc3cc(C(C)(C)C)on3)cc2)c1` it is 1000 nM; for `CC(C)(C)c1cc(NC(=O)Nc2ccc(Cc3ccncc3)cc2)no1` it is 590 nM.
`Cc1c(NC(=O)Nc2cc(C(C)(C)C)on2)ccc(Oc2ccccc2)c1C` had an IC50 of 650 nM.
Next, `CN(C)c1ccc(NC(=O)c2cc(Oc3ccc(NC(=O)Nc4ccc(Cl)c(C(F)(F)F)c4)cc3)ccn2)cc1`: 230 nM.
Next, `COC(=O)c1sc(C(C)(C)C)cc1NC(=O)Nc1ccc(O)cc1`: 18000 nM; `O=C(Nc1ccc(Oc2ccnc(C(=O)Nc3cccnc3)c2)cc1)Nc1ccc(Cl)c(C(F)(F)F)c1`: 44 nM; `CC(C)(C)c1cc(NC(=O)Nc2ccc(Oc3ccncc3)cc2)on1`: 120 nM.
Next, `CCNC(=O)c1cc(Oc2ccc(NC(=O)Nc3cc(C(F)(F)F)c(Cl)cc3OC)cc2)ccn1`: 88 nM; `CNS(=O)(=O)c1cccc(Oc2ccc(NC(=O)Nc3cc(C(C)(C)C)on3)cc2)c1`: 7500 nM; `Cc1cc(Oc2ccccc2)ccc1NC(=O)Nc1cc(C(C)(C)C)on1`: 1400 nM.
`COc1cccc(NC(=O)Nc2ccc(Oc3ccncc3)cc2)c1` showed an IC50 of 440 nM.
The figure for `CC(C)(C)c1cc(NC(=O)Nc2ccc(Oc3ccccc3)c(C(F)(F)F)c2)no1` is 9500 nM; for `CC(=O)c1cccc(Oc2ccc(NC(=O)Nc3cc(C(C)(C)C)on3)cc2)c1` it is 820 nM; for `CC(=O)Nc1cccc(Oc2ccc(NC(=O)Nc3cc(C(C)(C)C)on3)cc2C(F)(F)F)c1` it is 10000 nM.
The figure for `Cn1nc(C(C)(C)C)cc1NC(=O)Nc1ccc(Oc2ccncc2)cc1` is 800 nM; for `CC(C)(C)c1cc(NC(=O)Nc2ccc(Oc3ccc(C(=O)O)cc3)cc2)no1` it is 4400 nM; for `COc1cccc(Oc2ccc(NC(=O)Nc3cc(C(C)(C)C)on3)cc2)c1` it is 700 nM.
The figure for `O=C(Nc1ccc(Oc2ccnc(C(=O)Nc3ccc(N4CCOCC4)cc3)c2)cc1)Nc1ccc(Cl)c(C(F)(F)F)c1` is 160 nM.
On to `COC(=O)c1c(NC(=O)Nc2ccc(C)cc2)cc(C(C)(C)C)n1C`, for which the IC50 was determined as 5000 nM.
